Structures are written as SMILES. Read-outs that look alike come from different tables or passages of the source.

In the assay the target is T1, glucocerebrosidase (GCase), recombinant wt. enzyme velaglucerase alfa (Homo sapiens, UniProt P04062).
T1 construct: purchased Shire Human Genetic Therapies, Inc. Vpriv
T1 sequence (P04062 40-536): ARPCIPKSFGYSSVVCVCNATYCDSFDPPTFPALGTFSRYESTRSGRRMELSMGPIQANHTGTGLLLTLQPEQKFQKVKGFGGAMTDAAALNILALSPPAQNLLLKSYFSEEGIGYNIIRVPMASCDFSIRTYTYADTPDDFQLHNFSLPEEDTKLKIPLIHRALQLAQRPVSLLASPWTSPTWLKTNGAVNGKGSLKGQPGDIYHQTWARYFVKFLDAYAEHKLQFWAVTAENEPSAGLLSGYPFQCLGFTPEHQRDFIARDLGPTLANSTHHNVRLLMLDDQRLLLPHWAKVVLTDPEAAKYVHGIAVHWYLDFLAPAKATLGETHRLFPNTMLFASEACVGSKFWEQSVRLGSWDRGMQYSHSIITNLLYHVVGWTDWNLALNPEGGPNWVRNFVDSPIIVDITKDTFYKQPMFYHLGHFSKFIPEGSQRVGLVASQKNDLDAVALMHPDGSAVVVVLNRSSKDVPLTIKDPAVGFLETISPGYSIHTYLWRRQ
As to the kind of experiment: Glucocerebrosidase activity assay with blue substrate (4MU-Glc). In kind it is biochemical. The method, then: The compounds in DMSO solution 0.5 μL/well were transferred to a black 96-well plate (the final titration was 24 nM to 50 μM, 12 concentrations, 2 times dilution). 33.5 μL enzyme solution (7.5 nM final concentration) was transferred to the wells. After 5 min of incubation at room temperature, the enzyme reaction was initiated by the addition of 33 μL/well blue substrate or 66.5 μL/well red substrate. Final concentrations of the blue substrate (4MU-Glc) and red substrate (Res-Glc) were 1.5 mM and 30 μM, respectively. The red substrate reaction was measured in the Biotek Synergy H1 multi-mode plate reader with Ex=573 nm and Em=610 nm at 37° C. every 20 sec for 30 min. The blue substrate reaction was terminated by the addition of 33 μL/well stop solution (1 M NaOH and 1 M glycine mixture, pH 10) after 30 min of incubation at 37° C. The fluorescence was then measured in the plate reader at Ex=365 nm and Em=440 nm.
The recombinant wt. enzyme velaglucerase alfa (Vpriv®, Shire Human Genetic Therapies, Inc.) was obtained from residual solution after clinical infusions. The GCase activity assay buffer was composed of 50 mM citric acid, 176 mM K2HPO4, and 0.01% Tween-20 at pH 5.9. A solution of 1 M sodium hydroxide and 1 M glycine was used as the stop solution for the 4MU-β-glc substrate assay.
The compounds in DMSO solution 0.5 μL/well was transferred to a black 96-well plate (the final titration was 24 nM to 50 μM, 12 concentrations). 33.5 μL enzyme solution (7.5 nM final concentration) was transferred to the wells. After 5 min of incubation at room temperature, the enzyme reaction was initiated by the addition of 33 μL/well 4MU-Glc substrate or 66.5 μL/well red substrate. Final concentrations of the 4MU-Glc substrate and Res-Glc substrate were 1.5 mM and 30 μM, respectively. The red substrate reaction was measured in the Biotek Synergy H1 multi-mode plate reader with Ex=573 nm and Em=610 nm at 37° C. in every 20 seconds for 30 min. The 4MU-Glc substrate reaction was terminated by the addition of 33 μL/well stop solution (1 M NaOH and 1 M glycine mixture, pH 10) after 30 min of incubation at 37° C. The fluorescence was then measured in the plate reader with Ex=365 nm and Em=440 nm.

Setting [1] is: Table 2, values marked activator, read-out: Activity AC50 or IC50.
Where [2] appears, read: Table 1, titration 24 nM to 50 μM, substrate not given, read-out: Ac50.

As for `COC(=O)CCCCCc1cccc(NC(=O)c2ccn3c(C)cc(C)nc23)c1` [compound 81], the “activator (word in Activity cell)” value (Table 2) was “activator”. Also, the AC50 – broadly, the concentration giving half of the maximal activity seen – under setting [1] worked out at 1.78 µM. As to `COC(=O)CCCC#Cc1cccc(NC(=O)c2ccn3c(C)cc(C)nc23)c1` [compound 80], the “activator (word in Activity cell)” value (Table 2) is recorded as “activator”. On to `Cc1cc(C)n2ccc(C(=O)Nc3ccncc3)c2n1` [compound 22], for which the concentration at half-maximal activity (AC50) under setting [2] turned out to be 25.1 µM. As to `Cc1cc(C)n2ccc(C(=O)Nc3ccc(-c4cn(CCCCC(=O)O)nn4)cc3)c2n1` [compound 57], under “Table 1”, the “Activator / Inhibitor (word in Ac50 cell)” value (from here on “Activator / Inhibitor”) is reported as “Activator”. The AC50 under setting [2] turned out to be 7.08 µM.

Regarding `Cc1cc(C)n2ccc(C(=O)Nc3ccc(-c4cn(CCCCCCC(=O)O)nn4)cc3)c2n1` [compound 58], where the note is “Table 1”, the “Activator / Inhibitor” value is listed as “Activator”. Besides, the AC50 under setting [2] is 1.78 µM. For the compound `C#Cc1ccc(NC(=O)c2ccn3c(C)cc(C)nc23)cc1` [compound 1], the half-maximal activity concentration (AC50) under setting [2] is 0.14 µM. On to `Cc1cc(C)n2ccc(C(=O)Nc3ccc(CN4CCCCC4)cc3)c2n1` [compound 9], for which the AC50 under setting [2] stood at 70.8 µM. On the same count and under the same terms, then `Cc1cc(C)n2ccc(C(=O)NC3CCN(Cc4ccccc4)CC3)c2n1` [compound 32], with 50 µM; and `Cc1cc(C)n2ccc(C(=O)Nc3ccc(N4CCCCC4)cc3)c2n1` [compound 18], with 1.58 µM; and `Cc1cc(C)n2ccc(C(=O)Nc3ccc(CN4CCN(C)CC4)cc3)c2n1` [compound 8], with 39.8 µM.

With `Cc1cc(C)n2ccc(C(=O)Nc3ccc(C(F)(F)F)cc3)c2n1` [compound 5], the AC50 under setting [2] turned out to be 0.8 µM. On the same count and under the same terms, then `Cc1cc(C)n2ccc(C(=O)Nc3ccc(N4CCCC4)cc3)c2n1` [compound 25], with 0.51 µM; and `Cc1cc(C)n2ccc(C(=O)Nc3nccc4ccccc34)c2n1` [compound 21], with 39.8 µM. On the same count and under the same terms, with `Cc1cc(C)n2ccc(C(=O)Nc3ccc(OCCC(=O)O)cc3)c2n1` [compound 56] the figure was 15.8 µM; with `Cc1cc(C)n2ccc(C(=O)Nc3ccc(N4CCC(N(C)C)CC4)cc3)c2n1` [compound 50], 10 µM. For the compound `Cc1cc(C)n2ccc(C(=O)Nc3ccc(C#CCCCCCCC#Cc4ccc(N)cc4)cc3)c2n1` [compound 75], the “activator (word in Activity cell)” value (Table 2) is on record as “activator”. Also, the AC50 under setting [1] is 1.26 µM.

In the case of `Cc1cc(C)n2ccc(C(=O)Nc3ccccn3)c2n1` [compound 23], under setting [2], the AC50 stood at 22.4 µM. `Cc1cc(-c2cccnc2)nc2c(C(=O)Nc3ccc(C#CCCCCCCCCC(=O)ON4C(=O)CCC4=O)cc3)ccn12` [compound 83]: the “activator (word in Activity cell)” value (Table 2) was “activator”. In addition, the AC50 under setting [1] was determined as 0.56 µM. As to `Cc1cc(C)n2ccc(C(=O)Nc3ccc(-c4cn(CCCCCCCCC(=O)ON5C(=O)CCC5=O)nn4)cc3)c2n1` [compound 62], the “Activator / Inhibitor” value (Table 1) is on record as “Activator”. Moreover, the AC50 under setting [2] came out at 0.45 µM. Take `Cc1cc(C)n2ccc(C(=O)Nc3nc4c(s3)CN(C)CC4)c2n1` [compound 39]: under setting [2], the AC50 was found to be 39.8 µM. The same measure, in the same setting: then `Cc1cc(C)n2ccc(C(=O)Nc3ccc(CN(C)C)cc3)c2n1` [compound 20], with 14.1 µM. The same measure, in the same setting: then `Cc1cc(C)n2ccc(C(=O)NCc3cccs3)c2n1` [compound 51], with 15.8 µM; and `Cc1cc(C)n2ccc(C(=O)Nc3ccc(-c4cn(CCCN)nn4)cc3)c2n1` [compound 64], with 7.07 µM; and `Cc1cc(C)n2ccc(C(=O)Nc3nc4ccccc4[nH]3)c2n1` [compound 26], with 1.26 µM. Consider `Cc1cc(C)n2ccc(C(=O)Nc3ccc(-c4cn(CCOCCOCCC(=O)NC5CCCCC5)nn4)cc3)c2n1` [compound 69], for which the AC50 under setting [2] was determined as 2 µM.

On to `Cc1cc(C)n2ccc(C(=O)Nc3nc4cc(F)ccc4s3)c2n1` [compound 42], for which the AC50 under setting [2] turned out to be 50.2 µM.

Turning to `Cc1cc(C)n2ccc(C(=O)Nc3ccc(-c4cn(CCN(C)C)nn4)cc3)c2n1` [compound 63], the AC50 under setting [2] came to 39.8 µM.

Turning to `Cc1cc(C)n2ccc(C(=O)Nc3ccc(-c4cn(CCCCCCC(=O)ON5C(=O)CCC5=O)nn4)cc3)c2n1` [compound 61], the AC50 under setting [2] was 0.4 µM. `Cc1cc(C)n2ccc(C(=O)Nc3ccc(-c4cn(CCOCCOCCC(=O)NCCOCCOCCOCCNC(=O)CCOCCOCCn5cc(-c6ccc(NC(=O)c7ccn8c(C)cc(C)nc78)cc6)nn5)nn4)cc3)c2n1` [compound 71]: for the setting “Table 2”, the “activator (word in Activity cell)” value was “activator”. The concentration at half-maximal activity (AC50) under setting [1] was 1.26 µM. Consider `Cc1cc(C)n2ccc(C(=O)Nc3ccc(-c4cn(CCOCCOCCOCCN)nn4)cc3)c2n1` [compound 66], for which, under setting [2], the AC50 was 7.94 µM. On the same count and under the same terms, with `Cc1cc(C)n2ccc(C(=O)Nc3ccc(CN4CCOCC4)cc3)c2n1` [compound 7] the figure was 112 µM. The same measure, in the same setting: with `Cc1cc(C)n2ccc(C(=O)Nc3ccc(N=[N+]=[N-])cc3)c2n1` [compound 52] the figure was 0.2 µM; with `Cc1cc(C)n2ccc(C(=O)NC3CCC(N(C)C)CC3)c2n1` (stereo not shown) [compound 37], 40 µM. Still for that read-out and setting: with `Cc1cc(C)n2ccc(C(=O)Nc3ccc(Oc4ccccc4)cc3)c2n1` [compound 54] the figure was 0.56 µM.

As to `Cc1cc(C)n2ccc(C(=O)Nc3ccc(C#CCCCCCCC#Cc4ccc(NC(=O)c5ccn6c(C)cc(C)nc56)cc4)cc3)c2n1` [compound 76], the “activator (word in Activity cell)” value (Table 2) is “activator”. In addition, under setting [1], the half-maximal activity concentration (AC50) stood at 28.2 µM. For `Cc1cc(C)n2ccc(C(=O)NCc3cccnc3Oc3ccccc3)c2n1` [compound 72], in that order: “activator” and 6.13 µM. In the case of `Cc1cc(C)n2ccc(C(=O)Nc3ccc(-c4ccccc4)cc3)c2n1` [compound 24], the AC50 under setting [2] was 1.41 µM.

Take `Cc1cc(-c2cccnc2)nc2c(C(=O)Nc3ccc(C#CCCCCCCCCC(=O)O)cc3)ccn12` [compound 79]: the “activator (word in Activity cell)” value (Table 2) is on record as “activator”. Moreover, under setting [1], the concentration at half-maximal activity (AC50) is 3.54 µM. As to `Cc1cc(C)n2ccc(C(=O)Nc3ccc(N4CCOCC4)cc3)c2n1` [compound 19], the AC50 under setting [2] turned out to be 1.41 µM. On the same count and under the same terms, then `Cc1cc(C)n2ccc(C(=O)Nc3ccc(-c4cn(CCOCCN)nn4)cc3)c2n1` [compound 65], with 7.08 µM; and `Cc1cc(C)n2ccc(C(=O)Nc3ccc(C(=O)c4ccccc4)cc3)c2n1` [compound 53], with 0.14 µM. Regarding `COC(=O)CCCCCCCCC#Cc1ccc(NC(=O)c2ccn3c(C)cc(-c4cccnc4)nc23)cc1` [compound 78], the “activator (word in Activity cell)” value (Table 2) is given as “activator”. Besides, under setting [1], the AC50 stood at 0.71 µM. As to `Cc1cc(C)n2ccc(C(=O)NC3CCN(C(C)C)CC3)c2n1` [compound 34], under setting [2], the AC50 is 30 µM. On the same count and under the same terms, with `Cc1cc(C)n2ccc(C(=O)Nc3ccc(CCO)cc3)c2n1` [compound 30] the figure was 2.82 µM.

Regarding `Cc1cc(C)n2ccc(C(=O)Nc3ccc(N(C)C)cc3)c2n1` [compound 17], the AC50 under setting [2] came to 3.55 µM. On the same count and under the same terms, with `Cc1cc(C)n2ccc(C(=O)Nc3ccc(N4CCN(Cc5ccccc5)CC4)cc3)c2n1` [compound 12] the figure was 5.01 µM; with `Cc1cc(C)n2ccc(C(=O)NC3CCN(c4ccccc4)CC3)c2n1` [compound 35], 22.4 µM; with `Cc1cc(C)n2ccc(C(=O)Nc3cnn4c(C)cc(C)nc34)c2n1` [compound 46], 0.45 µM.

Turning to `Cc1cc(C)n2ccc(C(=O)Nc3ccc(CCN4CCN(C)CC4)cc3)c2n1` [compound 16], the AC50 under setting [2] is 44.7 µM.

For `CCCn1cnc(NC(=O)c2ccn3c(C)cc(C)nc23)n1` [compound 49], under setting [2], the AC50 was determined as 39.8 µM.

Consider `Cc1cc(C)n2ccc(C(=O)Nc3ccc(N4CCN(C)CC4)cc3)c2n1` [compound 10], for which the AC50 under setting [2] worked out at 7.08 µM. Still for that read-out and setting: then `Cc1cc(C)n2ccc(C(=O)Nc3ccc(CCN4CCOCC4)cc3)c2n1` [compound 14], with 31.6 µM. The same measure, in the same setting: then `CCN1CCN(c2ccc(NC(=O)c3ccn4c(C)cc(C)nc34)cc2)CC1` [compound 11], with 31.6 µM.

Values taken from US9802942B2, “Substituted 4-methyl-pyrrolo[1,2-A]pyrimidine-8-carboxamide compounds and uses thereof for modulating glucocerebrosidase activity” (Northwestern University, priority 2015, dated 2017).
